Measurements: patent publication US8895745B2, “Bicyclic heterocyclic compounds as FGFR inhibitors” (Astex Therapeutics Limited, priority 2006, dated 2014)
Counter-ions that a name gives are not always drawn.

system: LP-1 cell line; assay: Cell-based pERK ELISA method, LP-1 cells; conditions: Homo sapiens, LP-1, read-out: IC50 less than 1 μM or at least 50% inhibition at a concentration of 1 μM, LP-1 pERK ELISA

For `O=C(NCC(F)(F)F)Nc1cccc(-c2cnc3cc(-c4cc(F)cc(F)c4)ccn23)c1` [Example 254, 1-{3-[7-(3,5-Difluoro-phenyl)-imidazo[1,2-a]pyridin-3-yl]-phenyl}-3-(2,2,2-trifluoro-ethyl)-urea], which IC50 is on record?
Its IC50 is < 1 µM.

`CCNC(=O)c1cccc(-c2ccn3c(-c4cccc(NC(=O)NCC(F)(F)F)c4)cnc3c2)c1` [Example 261, N-Ethyl-3-(3-{3-[3-(2,2,2-trifluoro-ethyl)-ureido]-phenyl}-imidazo[1,2-a]pyridin-7-yl)-benzamide Formate] was tested. Which IC50 did it give?
Its IC50 is < 1 µM.

For `O=C(NCC(F)(F)F)Nc1cc(CO)cc(-c2cnc3cc(-c4ccc(F)cc4)ccn23)c1` [Example 258, 1-{3-[7-(4-Fluoro-phenyl)-imidazo[1,2-a]pyridin-3-yl]-5-hydroxymethyl-phenyl}-3-(2,2,2-trifluoro-ethyl)-urea], which IC50 is on record?
Its IC50 is < 1 µM.

How did the IC50 turn out when `CN(C)S(=O)(=O)n1cc(-c2ccn3c(-c4cccc(NC(=O)NCC(F)(F)F)c4)cnc3c2)cn1` [Example 262, 4-(3-{3-[3-(2,2,2-Trifluoro-ethyl)-ureido]-phenyl}-imidazo[1,2-a]pyridin-7-yl)-pyrazole-1-sulfonic acid dimethylamide] was run?
The IC50 was < 1 µM.

`CC(=O)Nc1cccc(-c2cnc3ccc(-c4csc5ccccc45)cn23)c1` [Example 103, N-[3-(6-Benzo[b]thiophen-3-yl-imidazo[1,2-a]pyridin-3-yl)-phenyl]-acetamide] was tested. Which IC50 did it give?
Its IC50 is < 1 µM.

With `O=C(NCC(F)(F)F)Nc1cccc(-c2cnc3cc(-c4ccc(Cl)c(F)c4)ccn23)c1` [Example 280, 1-{3-[7-(4-Chloro-3-fluoro-phenyl)-imidazo[1,2-a]pyridin-3-yl]-phenyl}-3-(2,2,2-trifluoro-ethyl)-urea] as the compound, how does the IC50 read?
The IC50 was < 1 µM.

`CNC(=O)c1cccc(-c2ccn3c(-c4cccc(NC(=O)NCC(F)(F)F)c4)cnc3c2)c1` [Example 247, N-Methyl-3-(3-{3-[3-(2,2,2-trifluoro-ethyl)-ureido]-phenyl}-imidazo[1,2-a]pyridin-7-yl)-benzemide Formate] was tested. Which IC50 did it give?
The IC50 was < 1 µM.

`O=C(NCC(F)(F)F)Nc1cccc(-c2cnc3cc(-c4cccc(NC5CCOCC5)c4)ccn23)c1` [Example 244, 1-(3-{7-[3-(Tetrahydro-pyran-4-ylamino)-phenyl]-imidazo[1,2-a]pyridin-3-yl}-phenyl)-3-(2,2,2-trifluoro-ethyl)-urea] was tested. Which IC50 did it give?
The IC50 was < 1 µM.

For `COC1CCCN(c2ccn3c(-c4cccc(NC(=O)NCC(F)(F)F)c4)cnc3c2)C1` (racemic) [Example 203, (±)-1-{3-[7-(3-Methoxy-piperidin-1-yl)-imidazo[1,2-a]pyridin-3-yl]-phenyl}-3-(2,2,2-trifluoro-ethyl)-urea], which IC50 is on record?
The IC50 was < 1 µM.

`CC(=O)Nc1cccc(-c2cnc3cc(-c4cccc(CO)c4)ccn23)c1` [Example 8, N-{3-[7-(3-Hydroxymeth-yl-phenyl)-imidazo[1,2-a]pyridin-3-yl]-phenyl}-acetamide] was tested. Which IC50 did it give?
The IC50 was < 1 µM.

Which IC50 does the source give for `Nc1ccc(-c2cnc3c(-c4cccc(NC(=O)NCC(F)(F)F)c4)cnn3c2)cn1` [Example 113, 1-{3-[6-(6-Amino-pyridin-3-yl)-pyrazolo[1,5-a]pyrimidin-3-yl]-phenyl}-3-(2,2,2-trifluoro-ethyl)-urea hydrochloride salt] here?
Its IC50 is < 1 µM.

How did the IC50 turn out when `O=C(NCC(F)(F)F)Nc1cccc(-c2cnc3cc(N4CCC4)ccn23)c1` [Example 202, 1-[3-(7-Azetidin-1-yl-imidazo[1,2-a]pyridin-3-yl)-phenyl]-3-(2,2,2-trifluoro-ethyl)-urea] was run?
Its IC50 is < 1 µM.

`Cn1cc(-c2cnc3c(-c4cccc(NC(=O)NCC(F)(F)F)c4)cnn3c2)cn1` [Example 127, 1-{3-[6-(1-Methyl-1H-pyrazol-4-yl)-pyrazolo[1,5-a]pyrimidin-3-yl]-phenyl}-3-(2,2,2-trifluoro-ethyl)-urea] was tested. Which IC50 did it give?
Its IC50 is < 1 µM.

How did the IC50 turn out when `O=C(NCC(F)(F)F)Nc1cccc(-c2cnc3cc(-c4cccc(OC5CCNCC5)c4)ccn23)c1` [Example 200, 1-(3-{7-[3-(Piperidin-4-yloxy)-phenyl]-imidazo[1,2-a]pyridin-3-yl}-phenyl)-3-(2,2,2-trifluoro-ethyl)-urea] was run?
The IC50 was < 1 µM.

With `CCNC(=O)Nc1cccc(-c2cnc3cc(-c4ccc(F)cc4)ccn23)c1` [Example 15, 1-Ethyl-3-{3-[7-(4-fluoro-phenyl)-imidazo[1,2-a]pyridin-3-yl]-phenyl}-urea formate salt] as the compound, how does the IC50 read?
Its IC50 is < 1 µM.

For `CC(=O)Nc1cccc(-c2cnc3cc(-c4ccnc(N5CCN(C)CC5)c4)ccn23)c1` [Example 62, N-(3-{7-[2-(4-Methyl-piperazin-1-yl)-pyridin-4-yl]-imidazo[1,2-a]pyridin-3-yl}-phenyl)-acetamide], which IC50 is on record?
The IC50 was < 1 µM.

`CCNC(=O)Nc1cccc(-n2cnc3cc(-c4ccc(F)cc4)ccc32)c1` [Example 159, 1-Ethyl-3-{3-[5-(4-fluoro-phenyl)-benzoimidazol-1-yl]-phenyl}-urea Hydrochloride] was tested. Which IC50 did it give?
Its IC50 is < 1 µM.

Which IC50 does the source give for `CS(=O)(=O)NCc1cccc(-c2ccn3c(-c4cccc(NC(=O)NCC(F)(F)F)c4)cnc3c2)c1` [Example 239, N-[3-(3-{3-[3-(2,2,2-Trifluoro-ethyl)-ureido]-phenyl}-imidazo[1,2-a]pyridin-7-yl)-benzyl]-methane-sulfonamide] here?
Its IC50 is < 1 µM.

For `O=C(NCC(F)(F)F)Nc1cccc(-c2cnc3cc(-c4ccc(F)nc4)ccn23)c1` [Example 174, 1-{3-[7-(6-Fluoro-pyridin-3-yl)-imidazo[1,2-a]pyridin-3-yl]-phenyl}-3-(2,2,2-trifluoro-ethyl)-urea], which IC50 is on record?
The IC50 was < 1 µM.

`O=C(NCC(F)(F)F)Nc1cncc(-c2cnc3cc(-c4ccc(F)cc4)ccn23)c1` [Example 218, 1-{5-[7-(4-Fluoro-phenyl)-imidazo[1,2-a]pyridin-3-yl]-pyridin-3-yl}-3-(2,2,2-trifluoro-ethyl)-urea] was tested. Which IC50 did it give?
The IC50 was < 1 µM.

Which IC50 does the source give for `O=C(NCC(F)(F)F)Nc1cccc(-c2cnc3cc(Cl)ccn23)c1` [Example 228] here?
Its IC50 is < 1 µM.

With `O=C(NCC(F)(F)F)Nc1cccc(-c2cnc3cc(-c4cccc(CO)c4)ccn23)c1` [Example 219, 1-{3-[7-(3-Hydroxy-methyl-phenyl)-imidazo[1,2-a]pyridin-3-yl]-phenyl}-3-(2,2,2-trifluoro-ethyl)-urea] as the compound, how does the IC50 read?
Its IC50 is < 1 µM.

`CC(C)(O)c1ccc(-c2ccn3c(-c4cccc(NC(=O)NCC(F)(F)F)c4)cnc3c2)cn1` [Example 351, 1-(3-{7-[6-(1-Hydroxy-1-methyl-ethyl)-pyridin-3-yl]-imidazo[1,2-a]pyridin-3-yl}-phenyl)-3-(2,2,2-trifluoro-ethyl)-urea] was tested. Which IC50 did it give?
Its IC50 is < 1 µM.

same assay, conditions: Homo sapiens, LP-1, read-out: LP-1 pERK ELISA (μM)

How did the IC50 turn out when `Cc1nsc(-c2ccn3c(-c4cccc(NC(=O)NCC(F)(F)F)c4)cnc3c2)n1` [Example 399, 1-{3-[7-(3-Methyl-[1,2,4]thiadiazol-5-yl)-imidazo[1,2-a]pyridin-3-yl]-phenyl}-3-(2,2,2-trifluoro-ethyl)-urea] was run?
The IC50 was 0.022 µM.

For `Cc1nnc(-c2ccn3c(-c4cccc(NC(=O)NCC(F)(F)F)c4)cnc3c2)o1` [Example 329, 1-{3-[7-(5-Methyl-[1,3,4]oxadiazol-2-yl)-imidazo[1,2-a]pyridin-3-yl]-phenyl}-3-(2,2,2-trifluoro-ethyl)-urea], which IC50 is on record?
Its IC50 is 0.143 µM.

`O=C(NCC(F)(F)F)Nc1cccc(-c2cnc3cc(-c4nncs4)ccn23)c1` [Example 384, 1-[3-(7-[1,3,4]Thiadiazol-2-yl-imidazo[1,2-a]pyridin-3-yl)-phenyl]-3-(2,2,2-trifluoro-ethyl)-urea] was tested. Which IC50 did it give?
Its IC50 is 0.019 µM.
